Patent publication US10202361B2, “Pyridazinones as herbicides” (E I DU PONT DE NEMOURS AND COMPANY, priority 2014, dated 2019)

Key:
Assay in all cases: Test E pre-/postemergence greenhouse herbicide test
Format in all cases: in vivo
Conditions in all cases: Preemergence, scale 0 to 100
[1] = test system: poinsettia, wild (wild poinsettia, Euphorbia heterophylla)
[2] = test system: crabgrass, large (large crabgrass Digitaria sanguinalis)
[3] = test system: goosegrass (Eleusine indica)
[4] = test system: field bindweed (Convolvulus arvensis)
Procedure, shortened: (§1)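 Formulated test chemical (solvent mixture with surfactant) is applied preemergence to seeded silt loam and postemergence to plants at 1- to 4-leaf stage grown in peat-based medium. Greenhouse holding 14 to 21 d; response scored visually, 0 no effect to 100 complete control.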

[5] = test system: foxtail, giant (giant foxtail, Setaria faberii)
Procedure, shortened: as §1

[6] = test system: nightshade (eastern black nightshade, Solanum ptycanthum)
Procedure, shortened: as §1

[7] = test system: panicum, fall (fall panicum, Panicum dichotomiflorum)
Procedure, shortened: as §1

[8] = test system: ragweed (common ragweed, Ambrosia elatior)
Procedure, shortened: as §1

[9] = test system: ryegrass, Italian (Italian ryegrass, Lolium multiflorum)
Procedure, shortened: as §1

[10] = test system: velvetleaf (Abutilon theophrasti)
Procedure, shortened: as §1

[11] = test system: cocklebur (common cocklebur, Xanthium strumarium)
[12] = test system: nutsedge, yellow (yellow nutsedge, Cyperus esculentus)

CCOc1cc(=O)n(-c2ccc(F)cc2)nc1Cc1ccnc(C(F)(F)F)c1 [Compound 25, 5-ethoxy-2-(4-fluorophenyl)-6-[[2-(trifluoromethyl)-4-pyridinyl]methyl]-3 (2H)-pyridazinone]
35: Plant response rating: Panicum, Fall ([7]; 16 g ai/ha)
0: Plant response rating: Poinsettia, Wild ([1]; 8 g ai/ha) | Plant response rating: Poinsettia, Wild ([1]; 16 g ai/ha) | Plant response rating: Poinsettia, Wild ([1]; 31 g ai/ha) | Plant response rating: Crabgrass, Large ([2]; 8 g ai/ha) | Plant response rating: Crabgrass, Large ([2]; 16 g ai/ha) | Plant response rating: Field Bindweed ([4]; 8 g ai/ha) | Plant response rating: Field Bindweed ([4]; 16 g ai/ha) | Plant response rating: Field Bindweed ([4]; 31 g ai/ha) | Plant response rating: Foxtail, Giant ([5]; 8 g ai/ha) | Plant response rating: Foxtail, Giant ([5]; 16 g ai/ha) | Plant response rating: Foxtail, Giant ([5]; 31 g ai/ha) | Plant response rating: Panicum, Fall ([7]; 8 g ai/ha) | Plant response rating: Ragweed ([8]; 8 g ai/ha) | Plant response rating: Ragweed ([8]; 16 g ai/ha) | Plant response rating: Ragweed ([8]; 31 g ai/ha) | Plant response rating: Ryegrass, Italian ([9]; 8 g ai/ha) | Plant response rating: Velvetleaf ([10]; 8 g ai/ha) | Plant response rating: Velvetleaf ([10]; 31 g ai/ha) | Plant response rating: Cocklebur ([11]; 8 g ai/ha) | Plant response rating: Nutsedge, Yellow ([12]; 8 g ai/ha) | Plant response rating: Nutsedge, Yellow ([12]; 16 g ai/ha) | Plant response rating: Nutsedge, Yellow ([12]; 31 g ai/ha) | Plant response rating: Nutsedge, Yellow ([12]; 62 g ai/ha) | Plant response rating: Nutsedge, Yellow ([12]; 125 g ai/ha)
30: Plant response rating: Ryegrass, Italian ([9]; 16 g ai/ha) | Plant response rating: Ryegrass, Italian ([9]; 31 g ai/ha) | Plant response rating: Velvetleaf ([10]; 62 g ai/ha)
40: Plant response rating: Ryegrass, Italian ([9]; 62 g ai/ha)
15: Plant response rating: Goosegrass ([3]; 31 g ai/ha)
98: Plant response rating: Goosegrass ([3]; 125 g ai/ha) | Plant response rating: Nightshade ([6]; 62 g ai/ha)
80: Plant response rating: Nightshade ([6]; 31 g ai/ha) | Plant response rating: Velvetleaf ([10]; 125 g ai/ha)
65: Plant response rating: Cocklebur ([11]; 62 g ai/ha) | Plant response rating: Cocklebur ([11]; 125 g ai/ha)
75: Plant response rating: Crabgrass, Large ([2]; 31 g ai/ha) | Plant response rating: Goosegrass ([3]; 62 g ai/ha)
50: Plant response rating: Poinsettia, Wild ([1]; 62 g ai/ha) | Plant response rating: Nightshade ([6]; 16 g ai/ha) | Plant response rating: Panicum, Fall ([7]; 31 g ai/ha) | Plant response rating: Ragweed ([8]; 125 g ai/ha) | Plant response rating: Ryegrass, Italian ([9]; 125 g ai/ha) | Plant response rating: Cocklebur ([11]; 16 g ai/ha)
100: Plant response rating: Crabgrass, Large ([2]; 62 g ai/ha) | Plant response rating: Crabgrass, Large ([2]; 125 g ai/ha) | Plant response rating: Field Bindweed ([4]; 125 g ai/ha) | Plant response rating: Nightshade ([6]; 125 g ai/ha) | Plant response rating: Panicum, Fall ([7]; 62 g ai/ha) | Plant response rating: Panicum, Fall ([7]; 125 g ai/ha)
10: Plant response rating: Poinsettia, Wild ([1]; 125 g ai/ha)
5: Plant response rating: Goosegrass ([3]; 8 g ai/ha) | Plant response rating: Goosegrass ([3]; 16 g ai/ha) | Plant response rating: Field Bindweed ([4]; 62 g ai/ha) | Plant response rating: Foxtail, Giant ([5]; 62 g ai/ha) | Plant response rating: Nightshade ([6]; 8 g ai/ha)
20: Plant response rating: Foxtail, Giant ([5]; 125 g ai/ha) | Plant response rating: Ragweed ([8]; 62 g ai/ha) | Plant response rating: Velvetleaf ([10]; 16 g ai/ha) | Plant response rating: Cocklebur ([11]; 31 g ai/ha)
